Measurements reported in patent publication US7829114B2, “Capsules containing aqueous fill compositions stabilized with derivatized cyclodextrin” (CyDex Pharmaceuticals, Inc., priority 2002, dated 2010).
Read-outs that look alike come from different tables or passages of the source.

Columns and labels:
[1] = Shell stability on exposure to aqueous fill composition (half-shell integrity test, H.S.I.T.); assay type: physicochemical
Protocol: The same tests were performed on gelatin capsules obtained from CARDINAL HEALTH.
It has been discovered that PEG has a beneficial effect upon the shell-stabilizing property of an aqueous fill composition comprising SAE-CD. FIG. 6a depicts a ternary graph correlating the concentration of SAE-CD, water and PEG in a fill composition to the H.S.I.T. rating of a soft shell capsule exposed to the fill composition. Aqueous fill solutions comprising differing amounts of PEG, SAE-CD and water were prepared. The stability tests were conducted as described below. The HFC soft gelatin capsules described herein were used. For a composition comprising 40% wt. SBE-CD, 40% wt. water and 20% wt. PEG, the shell was stable for greater than 5 days. For a composition comprising 35% wt. SBE-CD, 35% wt. water and 30% wt. PEG, the shell was stable for greater than 5 days. For a composition comprising 18% wt. SBE-CD, 42% wt. water and 40% wt. PEG, the shell was stable for greater than 5 days. Under each of the conditions tested, the control sample excluded SAE-CD, i.e., containing only water and PEG at the indicated concentration, and failed within 24 hours. About the same results were obtained for the HFB (FIG. 6b), LFB (FIG. 7a) and LFC (FIG. 7b) soft gelatin capsules. Increasing the SAE-CD concentration to values higher than those indicated further increases the shelf-life of the shell or provides an HSIT rating of at least 4. Stabilized aqueous fill composition-containing capsule formulations can be achieved with each capsule if the following fill compositions are used.

[2] = H.S.I.T. with SAE-CD, PVP and water fill compositions; assay type: physicochemical
Protocol: FIGS. 10a-10i depict ternary graphs correlating the concentration of SAE-CD, water and PVP in a fill composition to the H.S.I.T. rating of a soft shell capsule exposed to the fill composition. Aqueous fill solutions comprising differing amounts of PVP, SAE-CD and water were prepared. The stability tests were conducted as described below. The capsules described herein were used: SHIONOGI HGC (hard gelatin capsule) (FIG. 10A), […] HPMC hard shell capsule (FIG. 10b), SHIONOGI HPMC hard shell capsule (FIG. 10C), […] HGC (FIG. 10D), VEGAGEL hard shell capsule (FIG. 10E), hydrophilic fill-grade CARDINAL SGC (soft gelatin capsule) (FIG. 10f), lipophilic fill-grade CARDINAL SGC (FIG. 10g), hydrophilic fill-grade BANNER SGC (FIG. 10h), and lipophilic fill-grade BANNER SGC (FIG. 10i). No other shell-stabilizing material(s) was (were) included in the fill compositions evaluated. The results varied according to the capsule used. Stabilized aqueous fill composition-containing capsule formulations can be achieved with each capsule if one or more of the following fill compositions detailed below are used. • 1. Water comprises ≧55% of the fill composition, and the combination of SAE-CD, PVP, one or more optional excipients and one or more optional active agents comprises ≧45% of the fill composition; wherein SAE-CD can comprise up to 90% (85%, 83%, or 80%) of the weight of the fill composition, and PVP can comprise less than 90%, respectively, of the weight of the fill composition, provided that the fill composition comprises >≧35% PVP when SAE-CD comprises […]; ≦15% of the weight of the fill composition, and wherein both PVP (preferably water soluble or water swellable) and SAE-CD are present. • 2. Water comprises ≦45% of the fill composition, and the combination of SAE-CD, PVP, one or more optional excipients and one or more optional active agents comprises ≧55% of the fill composition; wherein SAE-CD can comprise up to 90% (85%, 83%, or 80%) of the weight of the fill composition, and PVP can comprise less than 90%, respectively, of the weight of the fill composition, provided that the fill composition comprises ≧35% PVP when SAE-CD comprises ≦20% of the weight of the fill composition, and wherein both PVP (preferably water soluble or water swellable) and SAE-CD are present. • 3. […]

[3] = SHIONOGI HPMC hard shell capsule
[4] = 40% wt. cyclodextrin derivative in water, HFC
[5] = 50% wt. cyclodextrin derivative in water, HFC
[6] = 55% wt. cyclodextrin derivative in water, HFC
[7] = 60% wt. cyclodextrin derivative in water, HFC

| content in fill composition for a stabilized capsule formulation [1] | time the shell was stable ([1]; 18% wt. SBE-CD, 42% wt. water and 40% wt. PEG, HFC) | time the shell was stable ([1]; 35% wt. SBE-CD, 35% wt. water and 30% wt. PEG, HFC) | time the shell was stable ([1]; 40% wt. SBE-CD, 40% wt. water and 20% wt. PEG, HFC) | Increase in shell size [1, 4] | Observations [1, 4] | Time for failure [1, 4] | Increase in shell size [1, 5] | Observations [1, 5] | Time for failure [1, 5] | Increase in shell size [1, 6] | Observations [1, 6] | Time for failure [1, 6] | Increase in shell size [1, 7] | Observations [1, 7] | Time for failure [1, 7] | Compound | content in fill composition for a stabilized capsule formulation ([1]; SAE-CD, PEG and water fill, HFC) | content in fill composition for an HSIT rating of at least 3 ([2]; SHIONOGI HGC) | content in fill composition for an HSIT rating of at least 3 [2, 3] |
| --- | --- | --- | --- | --- | --- | --- | --- | --- | --- | --- | --- | --- | --- | --- | --- | --- | --- | --- | --- |
|  |  |  |  |  |  |  |  |  |  |  |  |  |  |  |  | O [Water] | ≦50% | ≦54% | ≦60% |
| ≧18% | greater than 5 days | greater than 5 days | greater than 5 days | 3 × original | deformed | 4 days | 2 × original | shape intact | 7 days | No change | No deformities | ≧14 days | no change | no change | >21 days | sulfobutyl ether cyclodextrin [SAE-CD] |  | ≧6% | ≧6% |
